Test: recombinant barcode read abundance after kanamycin selection (control-corrected) (log10(CPM+1)); higher = more efficient recombination; sequences stand for … in AGTGCAGAGAAAATCGGCCAGTTTTCTCTGCCTGCAGTCCGCATGCCGT…AGATTTATGCAGCGGACTGCCTTTCTCCCAAAGTGATAAACCGGACAGTATCATGGACCGGTTTTCCCGGTAATCCGTATTTGCAAGGTTGGTTTCACT; site = the 11-nt target
How it was run: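 A promoter, a target, a barcode and the first 104 bridge RNA bases under J23119 made up each oligo. Oligos were Gibson-cloned into a vector bearing the other 73 bp and a T7-inducible recombinase, then co-electroporated into E. coli with a donor plasmid and plated in duplicate on chloramphenicol/ampicillin LB agar (control) or chloramphenicol/ampicillin/kanamycin with 0.1 mM IPTG. Recombination efficiency is the averaged, control-corrected counts per million of recombinant-junction barcodes. Reported values are log10(CPM+1).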
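Note: IS621 recombinase and bridge RNA in Escherichia coli cells.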

Row | Sequence | recombinant barcode read abundance (log10)
1 | AGGAACTCTTGGGTTCTAACCTGTTGCTT (site AGGAACTCTAA) | 1.87
2 | AGGAACTCTTGGGTTCTAACCTGTTGCTT (site AGGAGCTCTTA) | 0.0561
3 | AGGAAGACTTGGGTTCTAACCTGTTGCCA (site AGGAAGACTTG) | 0.948
4 | AGGAAGACTTGGGTTCTAACCTGTTGCCA (site AGGCAGACTTG) | 0.0465
5 | AGGAAGACTTGGGTTCTAACCTGTTGCCA (site AGGGAGACTTG) | 0.239
6 | AGGAAGACTTGGGTTCTAACCTGTTGCCA (site AGGTAGACTTG) | 0.412
7 | AGGAAGACTTGGGTTCTAACCTGTTGCCG (site AGGAAGACTCC) | 0.883
8 | AGGAAGACTTGGGTTCTAACCTGTTGCCG (site AGGAAGACTCG) | 1.95
9 | AGGACCACTTGGGTTCTAACCTGTTGCCA (site AGGACCACTTG) | 0.868
10 | AGGACCACTTGGGTTCTAACCTGTTGCCA (site ATGACCGCTTG) | 0.0948
11 | AGGAGCCCTTGGGTTCTAACCTGTTGCGA (site AGGAGCCCTTC) | 2.84
12 | AGGAGCCCTTGGGTTCTAACCTGTTGCGA (site CGGAGCCCTCC) | 0.0589
13 | AGGAGTCCTTGGGTTCTAACCTGTTGCGT (site AGCAGTCCTAC) | 0.182
14 | AGGAGTCCTTGGGTTCTAACCTGTTGCGT (site AGGAGTCCTAC) | 2.57
15 | AGGAGTCCTTGGGTTCTAACCTGTTGCTG (site AGGAATCCTAA) | 1.57
16 | AGGAGTCCTTGGGTTCTAACCTGTTGCTG (site AGGAGTCCTCA) | 2.08
17 | AGGATTCCTTGGGTTCTAACCTGTTGCCT (site AAGATTCCTAG) | 0.171
18 | AGGATTCCTTGGGTTCTAACCTGTTGCCT (site ACGATTCCTAG) | 0.634
19 | AGGATTCCTTGGGTTCTAACCTGTTGCCT (site AGGATTCCTAG) | 1.16
20 | AGGATTCCTTGGGTTCTAACCTGTTGCCT (site ATGATTCCTAG) | 0.158
21 | AGGCCCACTTGGGTTCTAACCTGTTGCTC (site AGGCCCACTGA) | 1.81
22 | AGGCCCACTTGGGTTCTAACCTGTTGCTC (site AGGTCCACTCA) | 0.166
23 | AGGCCGTCTTGGGTTCTAACCTGTTGCGT (site AGGCAGTCTAG) | 0.195
24 | AGGCCGTCTTGGGTTCTAACCTGTTGCGT (site AGGCCGTCTAC) | 2.43
25 | AGGCGCCCTTGGGTTCTAACCTGTTGCAT (site AGGCGCCCTAT) | 1.29
26 | AGGCGCCCTTGGGTTCTAACCTGTTGCAT (site AGGCGCCCTCT) | 0.041

Row | Sequence | recombinant barcode read abundance (log10)
27 | AGGCGCCCTTGGGTTCTAACCTGTTGCAT (site AGGCGCCCTGT) | 0.219
28 | AGGCGCCCTTGGGTTCTAACCTGTTGCAT (site AGGCGCCCTTT) | 0.244
29 | AGGCGTCCTTGGGTTCTAACCTGTTGCCG (site AGGCGTCCTAG) | 0.964
30 | AGGCGTCCTTGGGTTCTAACCTGTTGCCG (site AGGCGTCCTCG) | 1.24
31 | AGGCGTCCTTGGGTTCTAACCTGTTGCCG (site AGGCGTCCTGG) | 0.227
32 | AGGCGTCCTTGGGTTCTAACCTGTTGCCG (site AGGCGTCCTTG) | 0.122
33 | AGGCGTCCTTGGGTTCTAACCTGTTGCCT (site AGGCGTCCTAG) | 1.44
34 | AGGCGTCCTTGGGTTCTAACCTGTTGCCT (site AGGCGTCCTCG) | 0.249
35 | AGGCGTCCTTGGGTTCTAACCTGTTGCCT (site AGGCGTCCTGG) | 1.03
36 | AGGCGTCCTTGGGTTCTAACCTGTTGCCT (site AGGCGTCCTTG) | 0.374
37 | AGGGATCCTTGGGTTCTAACCTGTTGCGT (site AGGGATCCTAC) | 3.09
38 | AGGGATCCTTGGGTTCTAACCTGTTGCGT (site ATGGATCCTAC) | 1.29
39 | AGGGCACCTTGGGTTCTAACCTGTTGCAG (site AGGGCACCTCT) | 1.56
40 | AGGGCACCTTGGGTTCTAACCTGTTGCAG (site CATCGGACTTC) | 0.142
41 | AGGGCGTCTTGGGTTCTAACCTGTTGCCG (site AGGGCATCTAG) | 0.0811
42 | AGGGCGTCTTGGGTTCTAACCTGTTGCCG (site AGGGCGTCTCG) | 1.69
43 | AGGGTCACTTGGGTTCTAACCTGTTGCCT (site AAGGTCACTAG) | 0.274
44 | AGGGTCACTTGGGTTCTAACCTGTTGCCT (site ACGGTCACTAG) | 0.653
45 | AGGGTCACTTGGGTTCTAACCTGTTGCCT (site AGGGTCACTAG) | 2.23
46 | AGGGTCACTTGGGTTCTAACCTGTTGCCT (site ATGGTCACTAG) | 1.06
47 | AGGGTGTCTTGGGTTCTAACCTGTTGCTG (site AGGGTGCCTTA) | 0.105
48 | AGGGTGTCTTGGGTTCTAACCTGTTGCTG (site AGGGTGTCTCA) | 2.55
49 | AGGTACACTTGGGTTCTAACCTGTTGCAC (site AGGTACACTGT) | 2.22
50 | AGGTACACTTGGGTTCTAACCTGTTGCAC (site TTCAGACCTAG) | 0.0924
51 | AGGTCCACTTGGGTTCTAACCTGTTGCTG (site AGGCCCACTGA) | 0.109
52 | AGGTCCACTTGGGTTCTAACCTGTTGCTG (site AGGTCCACTCA) | 1.31

Row | Sequence | recombinant barcode read abundance (log10)
53 | AGGTCCTCTTGGGTTCTAACCTGTTGCCT (site AGGTCCTCTAA) | 1.05
54 | AGGTCCTCTTGGGTTCTAACCTGTTGCCT (site AGGTCCTCTAC) | 0.233
55 | AGGTCCTCTTGGGTTCTAACCTGTTGCCT (site AGGTCCTCTAG) | 2.06
56 | AGGTCCTCTTGGGTTCTAACCTGTTGCCT (site AGGTCCTCTAT) | 0.703
57 | AGGTCTACTTGGGTTCTAACCTGTTGCCA (site AGGTCTACTTG) | 0.6
58 | AGGTCTACTTGGGTTCTAACCTGTTGCCA (site TTAGACCCTCT) | 0.1
59 | AGGTCTACTTGGGTTCTAACCTGTTGCGG (site AGGTCTACTCC) | 1.63
60 | AGGTCTACTTGGGTTCTAACCTGTTGCGG (site GAAAACTCTAG) | 0.0493
61 | AGGTGTCCTTGGGTTCTAACCTGTTGCGA (site AGGTGTCCTTC) | 2.36
62 | AGGTGTCCTTGGGTTCTAACCTGTTGCGA (site TATATATCTAT) | 0.247
63 | AGGTTCCCTTGGGTTCTAACCTGTTGCGG (site AGGTTCCCTCC) | 1.96
64 | AGGTTCCCTTGGGTTCTAACCTGTTGCGG (site CTAGGAACTTA) | 0.11
65 | AGGTTCCCTTGGGTTCTAACCTGTTGCTG (site AGGTTCCCTAA) | 0.154
66 | AGGTTCCCTTGGGTTCTAACCTGTTGCTG (site AGGTTCCCTCA) | 2.46
67 | AGGTTCCCTTGGGTTCTAACCTGTTGCTG (site AGGTTCCCTGA) | 0.142
68 | AGGTTCCCTTGGGTTCTAACCTGTTGCTG (site AGGTTCCCTTA) | 0.358
69 | AGTAAGACTTGGGTTCTAACCTGTTGCGT (site AGTAAGACTAA) | 0.062
70 | AGTAAGACTTGGGTTCTAACCTGTTGCGT (site AGTAAGACTAC) | 2.25
71 | AGTAAGACTTGGGTTCTAACCTGTTGCGT (site AGTAAGACTAG) | 0.482
72 | AGTAAGACTTGGGTTCTAACCTGTTGCGT (site AGTAAGACTAT) | 1.22
73 | AGTAAGACTTGGGTTCTAACCTGTTGCTT (site AGTAAGACTAA) | 0.281
74 | AGTAAGACTTGGGTTCTAACCTGTTGCTT (site AGTAAGACTAC) | 0.354
75 | AGTAAGACTTGGGTTCTAACCTGTTGCTT (site AGTAAGACTAG) | 0.202
76 | AGTAAGACTTGGGTTCTAACCTGTTGCTT (site AGTAAGACTAT) | 0.15
77 | AGTACTACTTGGGTTCTAACCTGTTGCCT (site AATACTACTAG) | 0.0591

Source: the supplement of paper PMC11208160
